Assay results as given in patent US12077503B2, “Substituted cyclic amides and their use as herbicides” (FMC CORPORATION, priority 2015, dated 2024).

Columns and labels:
Format in all cases: in vivo
[1] = test system: barnyardgrass (Echinochloa crus-galli); test: Test A preemergence; details: Echinochloa crus-galli, pre-emergence, 240 h, Preemergence
In short: (§1)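 Visual injury, scored on a 0–100 scale relative to untreated controls, was recorded about 10 d after application. Treatments were a preemergence soil spray over planted seeds or a postemergence spray on plants at the one- to two-leaf stage, 2 to 10 cm tall, all in loam soil–sand blend in the greenhouse.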

[2] = test system: ragweed (common ragweed, Ambrosia elatior); test: Test A preemergence; details: Ambrosia artemisiifolia, pre-emergence, 240 h, Preemergence
In short: as §1

[3] = test system: ryegrass, Italian (Italian ryegrass, Lolium multiflorum); test: Test A preemergence; details: Lolium multiflorum, pre-emergence, 240 h, Preemergence
In short: as §1

[4] = test system: pigweed (Amaranthus retroflexus); test: Test A preemergence; details: Amaranthus retroflexus, pre-emergence, 240 h, Preemergence
[5] = test system: giant foxtail (Setaria faberii); test: Test A preemergence; details: Setaria faberi, pre-emergence, 240 h, Preemergence
In short: as §1

Kochia (Kochia scoparia) [6] = test: Test A preemergence; details: Bassia scoparia, pre-emergence, 240 h, Preemergence
In short: as §1

[7] = test system: barnyardgrass (Echinochloa crus-galli); test: Test A postemergence; details: Echinochloa crus-galli, post-emergence, 240 h, Postemergence, read-out: Plant response rating, Barnyardgrass
In short: as §1

[8] = test system: blackgrass (Alopecurus myosuroides); test: Test A postemergence; details: Alopecurus myosuroides, post-emergence, 240 h, Postemergence, read-out: Plant response rating, Blackgrass
In short: as §1

[9] = test system: ragweed (common ragweed, Ambrosia elatior); test: Test A postemergence; details: Ambrosia artemisiifolia, post-emergence, 240 h, Postemergence, read-out: Plant response rating, Ragweed
In short: as §1

[10] = test system: Galium (catchweed bedstraw, Galium aparine); test: Test A postemergence; details: Galium, post-emergence, 240 h, Postemergence, read-out: Plant response rating, Galium
In short: as §1

[11] = test system: ryegrass, Italian (Italian ryegrass, Lolium multiflorum); test: Test A postemergence; details: Lolium multiflorum, post-emergence, 240 h, Postemergence, read-out: Plant response rating, Ryegrass, Italian
In short: as §1

[12] = test system: pigweed (Amaranthus retroflexus); test: Test A postemergence; details: Amaranthus retroflexus, post-emergence, 240 h, Postemergence, read-out: Plant response rating, Pigweed
In short: as §1

[13] = test system: giant foxtail (Setaria faberii); test: Test A postemergence; details: Setaria faberi, post-emergence, 240 h, Postemergence, read-out: Plant response rating, Foxtail, Giant
In short: as §1

Kochia (Kochia scoparia) [14] = test: Test A postemergence; details: Bassia scoparia, post-emergence, 240 h, Postemergence, read-out: Plant response rating, Kochia
In short: as §1

[15] = test system: wheat (Triticum aestivum); test: Test A postemergence; details: Triticum aestivum, post-emergence, 240 h, Postemergence, read-out: Plant response rating, Wheat
In short: as §1

corn (Zea mays) = test: Test A postemergence; details: Zea mays, post-emergence, 240 h, Postemergence
In short: as §1

[16] = test system: barnyardgrass (Echinochloa crus-galli); test: Test B flooded paddy test; details: Echinochloa crus-galli, 250 g ai/ha, Flood; 0 to 100 scale where 0 is no effect and 100 is complete control; read-out: Barnyardgrass plant response rating
In short: (§2)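 Rating scale 0–100 (visual, vs untreated controls) after a 13–15 d greenhouse period; application to the flood layer, 3 cm above soil and maintained; plants at 2-leaf stage when treated.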

[17] = test system: sedge, umbrella (small-flower umbrella sedge, Cyperus difformis); test: Test B flooded paddy test; details: Cyperus difformis, 250 g ai/ha, Flood; 0 to 100 scale where 0 is no effect and 100 is complete control; read-out: Sedge, Umbrella plant response rating
In short: as §2

rice (Oryra sativa) = test: Test B flooded paddy test; details: Oryza sativa, 250 g ai/ha, Flood; 0 to 100 scale where 0 is no effect and 100 is complete control; read-out: Rice plant response rating
In short: as §2

[18] = test system: ducksalad (Heteranthera limosa); test: Test B flooded paddy test; details: Heteranthera limosa, 250 g ai/ha, Flood; 0 to 100 scale where 0 is no effect and 100 is complete control; read-out: Ducksalad plant response rating
In short: as §2

[19] = 125 g ai/ha, visual injury after approximately 10 d, 0 to 100 scale where 0 is no effect and 100 is complete control
[20] = 31 g ai/ha, visual injury after approx. 10 d, 0 to 100 scale, 0 no effect, 100 complete control

## CC(C)=CC1CNC(=O)C1C(=O)Nc1cccc(F)c1F (stereo not drawn) [Compound 1012]
[1]; 125 g ai/ha, visual injury rating after approximately 10 d, read-out: Barnyardgrass plant response rating (0 to 100 scale, 0 is no effect, 100 is complete control)
  pest or weed control at 125 g/ha: 0%
[1]; 31 g ai/ha, 0 to 100 scale (0 no effect, 100 complete control), read-out: Plant response rating, Barnyardgrass
  pest or weed control at 31 g/ha: 0%
[2]; 31 g ai/ha, 0 to 100 scale where 0 is no effect and 100 is complete control, read-out: Ragweed plant response rating
  pest or weed control at 31 g/ha: 0%
[2]; 125 g ai/ha, visual injury rating after approximately 10 d, read-out: Ragweed plant response rating (0 to 100 scale, 0 is no effect, 100 is complete control)
  pest or weed control at 125 g/ha: 0%
[3]; 31 g ai/ha, 0 to 100 scale where 0 is no effect and 100 is complete control, read-out: Ryegrass, Italian plant response rating
  pest or weed control at 31 g/ha: 0%
[3]; 125 g ai/ha, visual injury rating after approximately 10 d, read-out: Ryegrass, Italian plant response rating (0 to 100 scale, 0 is no effect, 100 is complete control)
  pest or weed control at 125 g/ha: 0%
[4]; 31 g ai/ha, 0 to 100 scale where 0 is no effect and 100 is complete control, read-out: Pigweed plant response rating
  pest or weed control at 31 g/ha: 0%
[4]; 125 g ai/ha, visual injury rating after approximately 10 d, read-out: Pigweed plant response rating (0 to 100 scale, 0 is no effect, 100 is complete control)
  pest or weed control at 125 g/ha: 0%
[5]; 125 g ai/ha, visual injury rating after approximately 10 d, read-out: Foxtail, Giant plant response rating (0 to 100 scale, 0 is no effect, 100 is complete control)
  pest or weed control at 125 g/ha: 0%
[5]; 31 g ai/ha, 0 to 100 scale (0 no effect, 100 complete control), read-out: Plant response rating, Foxtail, Giant
  pest or weed control at 31 g/ha: 0%
Kochia (Kochia scoparia) [6]; 31 g ai/ha, 0 to 100 scale where 0 is no effect and 100 is complete control, read-out: Kochia plant response rating
  pest or weed control at 31 g/ha: 0%
Kochia (Kochia scoparia) [6]; 125 g ai/ha, visual injury rating after approximately 10 d, read-out: Kochia plant response rating (0 to 100 scale, 0 is no effect, 100 is complete control)
  pest or weed control at 125 g/ha: 0%
[7]; [19]
  pest or weed control at 125 g/ha: 0%
[7]; [20]
  pest or weed control at 31 g/ha: 0%
[8]; [19]
  pest or weed control at 125 g/ha: 0%
[8]; [20]
  pest or weed control at 31 g/ha: 0%
[9]; [19]
  pest or weed control at 125 g/ha: 0%
[9]; [20]
  pest or weed control at 31 g/ha: 0%
[10]; [19]
  pest or weed control at 125 g/ha: 0%
[10]; [20]
  pest or weed control at 31 g/ha: 0%
[11]; [19]
  pest or weed control at 125 g/ha: 0%
[11]; [20]
  pest or weed control at 31 g/ha: 0%
[12]; [19]
  pest or weed control at 125 g/ha: 0%
[12]; [20]
  pest or weed control at 31 g/ha: 0%
[13]; [19]
  pest or weed control at 125 g/ha: 0%
[13]; [20]
  pest or weed control at 31 g/ha: 0%
Kochia (Kochia scoparia) [14]; [19]
  pest or weed control at 125 g/ha: 0%
Kochia (Kochia scoparia) [14]; [20]
  pest or weed control at 31 g/ha: 0%
[15]; [19]
  plant injury at 125 g/ha: 0%
[15]; [20]
  plant injury at 31 g/ha: 0%
Corn (Zea mays); [19]
  Corn plant response rating (crop injury, 0 = no effect, 100 = complete kill) at 125 g/ha: 0%
Corn (Zea mays); [20]
  Corn plant response rating (crop injury, 0 = no effect, 100 = complete kill) at 31 g/ha: 0%
[16]
  pest or weed control at 250 g/ha: 0%
[17]
  pest or weed control at 250 g/ha: 0%
Rice (Oryra sativa)
  pest or weed control at 250 g/ha: 20%
[18]
  pest or weed control at 250 g/ha: 0%
